Measured values taken from patent publication US20190343908A1, “Therapeutic Combination for the Treatment of Cancer” (Nerium Biotechnology Inc., priority 2011, published 2019).

Columns and labels:
[1] = system: PANC-1 pancreatic cancer cell line; test: Sulforhodamine B viability assay, PANC-1; type: cell-based, human; design: key to Average SRB: absorbance (optical density) at 570 nm, second wavelength subtracted; settings: for ABSORBANCE: 0.1 μg/mL cisplatin; for SRB 24 h / SRB 48 h / SRB 72 h: Run 1 average
Source text: (§1) Three different viability assays were chosen to complement each other and yielded results dependent on concentration and cell line: the Methyl Tetrazolium dye assay, the Sulforhodamine B fluorescent dye assay, and the Crystal Violet dye assay.
The Sulforhodamine B and Crystal Violet assays provide information about protein and were used to complement the Methyl-Tetrazolium dye assay. […] It is used for the quantification of cellular proteins of cultured cells. The assay using Crystal Violet, a dye that binds electrostatically to proteins and stains DNA, provides a reliable, simple assay for measuring viability of cells. […]
(§2) Cells were detached by trypsinization (Trypsin-0.25% EDTA, Invitrogen, 25200-072) during the logarithmic phase of culture growth and plated in 96-well plates (18.000 cells/well) (Corning, Costar 359) in a final volume of 200 μl of medium per well. […] The absorbance was measured after 24 hours, 48 hours, and 72 hours of incubation.
For the Sulforhodamine B assay, 96-well plates were fixed by 10% trichloroacetic acid (Fluka, 91228) and were incubated at 4° C. for 1 hour. Afterwards, plates were rinsed with water and cells were stained with 0.4% Sulforhodamine B (Sigma, 341738), dissolved in 1% acetic acid (Carlo Ebra, 401422) for 15 minutes at room temperature (RT). The unbound stain was washed twice with 1% acetic acid. Finally, 10 mM Tris Buffer pH 10.5 (Sigma, T6791) was added to dissolve the dye.
(§3) The optical density of each plate was measured on a μQuant spectrophotometer and the data were analyzed with Gen5 software (μQuant Biomolecular Spectrophotometer MQX200 and Gen5™ Microplate Data Collection & Analysis software, BioTek® Instruments. Inc, April 2008). Absorbance was measured at 570 nm for all assays and a second wavelength was measured in order to subtract noise. For the Methyl-Tetrazolium assay this second wavelength was 630 nm and for the Sulforhodamine B and Crystal Violet assays it was 690 nm.

[2] = system: COLO699N lung cancer cell line; test: Methyl-Tetrazolium viability assay, COLO699N; type: cell-based, human; design: key to MTT Average: absorbance (optical density) at 570 nm, second wavelength subtracted; settings: for Average MTT 24 h / Average MTT 48 h / Average MTT 72 h: COLO699N Run 1; for ABSORBANCE: COLO699N, 0.1 μg/mL cisplatin
Source text: as §1
The Methyl-Tetrazolium dye assay measures the activity of enzymes in mitochondria. The dye precursor is taken up by cells, where it undergoes reduction to the purple formazan. It measures only the mitochondrial activity and, thus, it is not always a reliable indication of whether the cells themselves are alive or dead, since even a recently dead cell has […] enzyme activity in mitochondria. Intracellular glucose concentration, pH, and time before assay all affect the measurements.
The Methyl Tetrazolium, Sulforhodamine B, and Crystal Violet assays were used to assess cell viabilities. The incubation times were 24 hours, 48 hours, and 72 hours. The Nerium oleander extract Anvirzel™ (a hot water extract of oleander obtained from Salud Integral, Honduras) was tested in concentrations ranging from 0.01 ng/mL to 10 ng/mL.
as §2
For the Methyl-Tetrazolium assay, the dye (Sigma, M2128; 5 mg/mL, diluted in phosphate-buffered saline) was added to each well and plates were incubated for 3 hours at 37° C. After the end of the incubation period, the medium was discarded and the cells were rinsed with phosphate-buffered saline. Finally, the formazan crystals were dissolved in dimethylsulphoxide (Sigma, D4540).
as §3

N.N.[Cl][Pt][Cl] [cisplatin]
ABSORBANCE ([1]; PANC-1, 48 h): 1.861 | ABSORBANCE ([1]; PANC-1, 72 h): 2.536 | Average SRB ([1]; PANC-1, Run 2, 24 h, 0.1 μg/ml CDDP): 1.924 | Average SRB ([1]; PANC-1, Run 2, 24 h, 1 μg/ml CDDP): 2.391 | Average SRB ([1]; PANC-1, Run 2, 24 h, 10 μg/ml CDDP): 2.075 | Average SRB ([1]; PANC-1, Run 2, 24 h, 100 μg/ml CDDP): 1.821 | Average SRB ([1]; PANC-1, Run 2, 48 h, 0.1 μg/ml CDDP): 1.505 | Average SRB ([1]; PANC-1, Run 2, 48 h, 1 μg/ml CDDP): 1.549 | Average SRB ([1]; PANC-1, Run 2, 48 h, 10 μg/ml CDDP): 1.106 | Average SRB ([1]; PANC-1, Run 2, 48 h, 100 μg/ml CDDP): 0.752 | Average SRB ([1]; PANC-1, Run 2, 72 h, 0.1 μg/ml CDDP): 2.471 | Average SRB ([1]; PANC-1, Run 2, 72 h, 1 μg/ml CDDP): 2.171 | Average SRB ([1]; PANC-1, Run 2, 72 h, 10 μg/ml CDDP): 1.815 | Average SRB ([1]; PANC-1, Run 2, 72 h, 100 μg/ml CDDP): 1.374 | Average SRB ([1]; PANC-1, Run 3, 24 h, 0.1 μg/ml CDDP): 1.881 | Average SRB ([1]; PANC-1, Run 3, 24 h, 1 μg/ml CDDP): 2.008 | Average SRB ([1]; PANC-1, Run 3, 24 h, 10 μg/ml CDDP): 1.74 | Average SRB ([1]; PANC-1, Run 3, 24 h, 100 μg/ml CDDP): 2.087 | Average SRB ([1]; PANC-1, Run 3, 48 h, 0.1 μg/ml CDDP): 1.861 | Average SRB ([1]; PANC-1, Run 3, 48 h, 1 μg/ml CDDP): 1.165 | Average SRB ([1]; PANC-1, Run 3, 48 h, 10 μg/ml CDDP): 0.954 | Average SRB ([1]; PANC-1, Run 3, 48 h, 100 μg/ml CDDP): 0.858 | Average SRB ([1]; PANC-1, Run 3, 72 h, 0.1 μg/ml CDDP): 2.536 | Average SRB ([1]; PANC-1, Run 3, 72 h, 1 μg/ml CDDP): 2.281 | Average SRB ([1]; PANC-1, Run 3, 72 h, 10 μg/ml CDDP): 2.07 | Average SRB ([1]; PANC-1, Run 3, 72 h, 100 μg/ml CDDP): 1.584 | SRB 24 h ([1]; 0.1 μg/ml CDDP): 1.369 | SRB 48 h ([1]; 0.1 μg/ml CDDP): 2.223 | SRB 72 h ([1]; 0.1 μg/ml CDDP): 2.191 | SRB 24 h ([1]; 1 μg/ml CDDP): 1.748 | SRB 48 h ([1]; 1 μg/ml CDDP): 1.748 | SRB 72 h ([1]; 1 μg/ml CDDP): 1.47 | SRB 24 h ([1]; 10 μg/ml CDDP): 1.597 | SRB 48 h ([1]; 10 μg/ml CDDP): 1.339 | SRB 72 h ([1]; 10 μg/ml CDDP): 1.435 | SRB 24 h ([1]; 100 μg/ml CDDP): 1.993 | SRB 48 h ([1]; 100 μg/ml CDDP): 1.53 | SRB 72 h ([1]; 100 μg/ml CDDP): 1.433 | Average MTT 24 h ([2]; 0.1 μg/ml CDDP): 0.122 | Average MTT 48 h ([2]; 0.1 μg/ml CDDP, 48 h): 0.179 | Average MTT 72 h ([2]; 0.1 μg/ml CDDP, 72 h): 0.237 | Average MTT 24 h ([2]; 1 μg/ml CDDP): 0.023 | Average MTT 48 h ([2]; 1 μg/ml CDDP, 48 h): 0.016 | Average MTT 72 h ([2]; 1 μg/ml CDDP, 72 h): 0.019 | Average MTT 24 h ([2]; 10 μg/ml CDDP): 0.384 | Average MTT 48 h ([2]; 10 μg/ml CDDP, 48 h): 0.012 | Average MTT 72 h ([2]; 10 μg/ml CDDP, 72 h): 0.016 | Average MTT 24 h ([2]; 100 μg/ml CDDP): 0.033 | Average MTT 48 h ([2]; 100 μg/ml CDDP, 48 h): 0.011 | Average MTT 72 h ([2]; 100 μg/ml CDDP, 72 h): 0.014 | ABSORBANCE ([2]; 48 h): 0.636 | ABSORBANCE ([2]; 72 h): 0.73 | MTT Average ([2]; Run 2, 24 h, 0.1 μg/ml CDDP): 0.362 | MTT Average ([2]; Run 2, 24 h, 1 μg/ml CDDP): 0.055 | MTT Average ([2]; Run 2, 24 h, 10 μg/ml CDDP): 0.178 | MTT Average ([2]; Run 2, 24 h, 100 μg/ml CDDP): 0.04 | MTT Average ([2]; Run 2, 48 h, 0.1 μg/ml CDDP): 0.636 | MTT Average ([2]; Run 2, 48 h, 1 μg/ml CDDP): 0.04 | MTT Average ([2]; Run 2, 48 h, 10 μg/ml CDDP): 0.049 | MTT Average ([2]; Run 2, 48 h, 100 μg/ml CDDP): 0.018 | MTT Average ([2]; Run 2, 72 h, 0.1 μg/ml CDDP): 0.73 | MTT Average ([2]; Run 2, 72 h, 1 μg/ml CDDP): 0.044 | MTT Average ([2]; Run 2, 72 h, 10 μg/ml CDDP): 0.057 | MTT Average ([2]; Run 2, 72 h, 100 μg/ml CDDP): 0.068 | MTT Average ([2]; Run 3, 24 h, 0.1 μg/ml CDDP): 0.365 | MTT Average ([2]; Run 3, 24 h, 1 μg/ml CDDP): 0.04 | MTT Average ([2]; Run 3, 24 h, 10 μg/ml CDDP): 0.148 | MTT Average ([2]; Run 3, 24 h, 100 μg/ml CDDP): 0.041 | MTT Average ([2]; Run 3, 48 h, 0.1 μg/ml CDDP): 0.442 | MTT Average ([2]; Run 3, 48 h, 1 μg/ml CDDP): 0.063 | MTT Average ([2]; Run 3, 48 h, 10 μg/ml CDDP): 0.041 | MTT Average ([2]; Run 3, 48 h, 100 μg/ml CDDP): 0.025 | MTT Average ([2]; Run 3, 72 h, 0.1 μg/ml CDDP): 0.638 | MTT Average ([2]; Run 3, 72 h, 1 μg/ml CDDP): 0.078 | MTT Average ([2]; Run 3, 72 h, 10 μg/ml CDDP): 0.026 | MTT Average ([2]; Run 3, 72 h, 100 μg/ml CDDP): 0.027
